Here are results for 4 compounds from BindingDB's records for patent US20230340011 (Asteroid Therapeutics, 2023).

pIC50: −log10 of the molar value.

Broadly, the pIC50 is the IC50 on a negative log10 scale, so that one unit is a factor of ten. A lower pIC50 goes with a large IC50. As a reminder, the IC50 is the point on the concentration scale where inhibition reaches its midpoint. Low values mean higher potency, high ones lower potency.

The target of experiment [1] is T1, Sterol regulatory element-binding protein 2 (Homo sapiens, UniProt Q12772).
T1 sequence (Q12772 whole entry): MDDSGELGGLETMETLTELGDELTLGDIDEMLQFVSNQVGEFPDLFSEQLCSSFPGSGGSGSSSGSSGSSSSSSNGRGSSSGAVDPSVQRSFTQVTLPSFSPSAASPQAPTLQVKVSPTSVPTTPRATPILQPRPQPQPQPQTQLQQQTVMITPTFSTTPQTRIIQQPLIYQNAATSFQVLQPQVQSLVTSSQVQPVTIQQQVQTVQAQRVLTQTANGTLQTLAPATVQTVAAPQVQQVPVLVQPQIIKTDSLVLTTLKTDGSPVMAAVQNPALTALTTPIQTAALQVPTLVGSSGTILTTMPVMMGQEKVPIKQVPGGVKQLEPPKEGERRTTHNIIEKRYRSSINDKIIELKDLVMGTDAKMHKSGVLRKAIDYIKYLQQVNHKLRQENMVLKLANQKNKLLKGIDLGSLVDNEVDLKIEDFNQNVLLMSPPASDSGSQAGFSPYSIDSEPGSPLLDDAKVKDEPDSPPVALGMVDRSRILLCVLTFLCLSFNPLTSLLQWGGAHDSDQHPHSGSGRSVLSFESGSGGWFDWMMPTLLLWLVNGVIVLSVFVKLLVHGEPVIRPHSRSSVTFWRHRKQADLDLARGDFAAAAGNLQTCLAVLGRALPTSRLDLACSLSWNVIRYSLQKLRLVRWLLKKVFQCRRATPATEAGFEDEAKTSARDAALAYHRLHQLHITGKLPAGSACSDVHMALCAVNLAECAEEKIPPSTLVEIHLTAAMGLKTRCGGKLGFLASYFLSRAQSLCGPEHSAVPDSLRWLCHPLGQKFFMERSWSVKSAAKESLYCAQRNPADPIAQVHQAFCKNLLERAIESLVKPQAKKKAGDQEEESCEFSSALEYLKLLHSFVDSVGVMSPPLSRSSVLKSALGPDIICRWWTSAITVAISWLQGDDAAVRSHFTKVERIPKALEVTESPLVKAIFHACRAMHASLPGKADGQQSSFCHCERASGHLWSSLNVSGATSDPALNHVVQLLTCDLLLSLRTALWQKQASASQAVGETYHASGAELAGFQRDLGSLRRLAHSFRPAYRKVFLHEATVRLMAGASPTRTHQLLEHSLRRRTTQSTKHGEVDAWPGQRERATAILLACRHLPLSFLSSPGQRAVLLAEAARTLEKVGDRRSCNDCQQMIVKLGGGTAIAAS
Kind of experiment: In Vitro Assay-SREBP-2. The procedure:
10,000 cells/well of the PathHunter U2OS SREBP-2 Nuclear Translocation Cell Line are plated in quadruplicate on 384 well plates in 20 μL of AssayComplete cell plating 5 reagent (CP5-high serum) overnight at 37° C./5% CO2. A dilution series of test compound is added to cells, incubated for 1 hour at 37° C./5% CO2, and U18666A (a known SREBP agonist) is added to a final concentration of 10 μM. The plate is incubated overnight (16 hours) at 37° C./5% CO2. PathHunter Flash detection mix is added to the wells, incubated one hour in the dark, and the plate read on an Envision luminometer.

Experiment [2] addresses T2, Oxysterols receptor LXR-beta (Homo sapiens, UniProt P55055).
T2 sequence (P55055 whole entry): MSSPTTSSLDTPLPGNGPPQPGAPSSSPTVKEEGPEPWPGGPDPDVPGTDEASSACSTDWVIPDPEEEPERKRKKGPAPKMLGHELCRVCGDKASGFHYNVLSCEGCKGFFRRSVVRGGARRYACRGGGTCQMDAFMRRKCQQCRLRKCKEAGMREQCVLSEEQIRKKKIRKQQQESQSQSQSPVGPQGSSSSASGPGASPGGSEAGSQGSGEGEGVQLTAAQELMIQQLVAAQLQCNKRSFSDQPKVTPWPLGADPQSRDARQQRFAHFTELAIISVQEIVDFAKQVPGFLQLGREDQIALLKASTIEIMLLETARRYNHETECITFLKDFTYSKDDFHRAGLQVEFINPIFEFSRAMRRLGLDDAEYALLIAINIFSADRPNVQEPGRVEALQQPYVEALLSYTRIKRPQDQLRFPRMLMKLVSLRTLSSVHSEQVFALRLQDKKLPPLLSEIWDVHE
Kind of experiment: In Vitro Assay-LXRβ.
Protocol: PathHunter NHR CHO cells stably transfected with tagged full-length human LXRβ and a nuclear fusion protein containing Steroid Receptor Co-activator Peptide (SRCP). The full-length human LXRβ was tagged with the ProLink component of the DiscoverX Enzyme Fragment Complementation (EFC) system and the SRCP domain is fused to the enzyme acceptor component (EA) expressed in the nucleus. Cells were seeded in a total volume of 20 μL into white walled, 384-well microplates and incubated at 37 C. overnight prior to testing. Assay media contained charcoal-dextran filtered serum to reduce the level of hormones present. Final assay vehicle concentration was 1%. […] Microplates were read following signal generation with a PerkinElmer Envision instrument for chemiluminescent signal detection.

Consider `C[C@H](CCC(=O)N1CCN(C(=O)c2ccnnc2)CC1)[C@H]1CC[C@H]2[C@@H]3CC=C4C[C@@H](O)CC[C@]4(C)[C@H]3CC[C@]12C` [US20230340011, Example 389.], for which, in experiment [1], the negative logarithm of the IC50 (pIC50) was not below 6.60.
Take `Cc1cccc(/C=C/[C@@H](C)[C@H]2CC[C@H]3[C@@H]4CC=C5C[C@@H](O)CC[C@]5(C)[C@H]4CC[C@]23C)n1` [US20230340011, Example 132.]: the IC50 result in experiment [2] is “in the range around 5500 nM”.
`CCOC(=O)N1CCN(C(=O)CC[C@@H](C)[C@H]2CC[C@H]3[C@@H]4CC=C5C[C@@H](O)CC[C@]5(C)[C@H]4CC[C@]23C)CC1` [US20230340011, Example 422.] had a pIC50 in experiment [1] not below 6.60.
In the case of `COC(=O)N1CCN(C(=O)CCC[C@H]2CC[C@H]3[C@@H]4CC=C5C[C@@H](O)CC[C@]5(C)[C@H]4CC[C@]23C)CC1` [US20230340011, Example 421.], the pIC50 in experiment [1] was not below 6.60.
